The text below walks through data of US12575567B2, “Fungicidal compositions” (priority 2020, dated 2026).

SMILES strings stand for the structures. Where “and” joins values, the source holds several entries; their conditions need not be identical. Equal entries are not always repeated. Numbered stars: 1 amine (or outer) side, 2 acyl side, 3 side chain; on linkers, the order of the positions; unused ones are H or OH. Square brackets hold non-standard residues; d marks the D form. Peptide text beside a SMILES is read from it. X1 = CC[C@@H](C)[C@@H](O[*:1])C(=O)[*:2]; NMeVal(β-OH) = CN[C@H](C(=O)O)C(C)(C)O; NMeF = CN[C@@H](Cc1ccccc1)C(=O)O; aIle = CC[C@@H](C)[C@H](N)C(=O)O; NMeV = CN[C@H](C(=O)O)C(C)C

One assay deals with Botrytis cinerea. Briefly: Liquid culture test in well plates, Botrytis cinerea (Gray Mould), Example 1-1. The class given is cell-based. To be noted: 72 hours; for (A) inhibition: Aureobasidin A alone. The method, then: Mycelia fragments or conidia suspensions of a fungus, prepared either freshly from liquid cultures of the fungus or from cryogenic storage, are directly mixed into nutrient broth. DMSO solutions of the test compound (max. 10 mg/mL) is diluted with 0.025% Tween20 by factor 50 and 10 μL of this solution is pipetted into a microtiter plate (96-well format). […] The test plates are incubated in the dark at 24° C. and 96% relative humidity (rh). The inhibition of fungal growth is determined photometrically and visually after 3-7 days, depending on the pathosystem, and percent antifungal activity relative to the untreated check is calculated.
Conidia of the fungus from cryogenic storage were directly mixed into nutrient broth (PDB potato dextrose broth). After placing a DMSO solution of the test compositions into a microtiter plate (96-well format), the nutrient broth containing the fungal spores was added.

Another assay has as its system Alternaria solani. Briefly: Liquid culture test in well plates, Alternaria solani (Early Blight of Tomato/Potato), Example 1-2. The class given is cell-based. To be noted: 48 hours; for (A) inhibition: Aureobasidin A alone. On the procedure: Mycelia fragments or conidia suspensions of a fungus, prepared either freshly from liquid cultures of the fungus or from cryogenic storage, are directly mixed into nutrient broth. DMSO solutions of the test compound (max. 10 mg/mL) is diluted with 0.025% Tween20 by factor 50 and 10 μL of this solution is pipetted into a microtiter plate (96-well format). […] The test plates are incubated in the dark at 24° C. and 96% relative humidity (rh). […]
Conidia of the fungus from cryogenic storage were directly mixed into nutrient broth (PDB potato dextrose broth). After placing a DMSO solution of the test compositions into a microtiter plate (96-well format) the nutrient broth containing the fungal spores was added.

Setting [1] is: component (B) alone, 0.0031 ppm.
Where [2] appears, read: component (B) alone, 0.0250 ppm.
Setting [3] is: component (B) alone, 0.1250 ppm.
[4] abbreviates: Alternaria solani, component (B) alone.
Where [5] appears, read: component (B) alone, 0.0016 ppm.
The mark [6] stands for this setting: component (B) alone, 0.0125 ppm.

As to `Cn1cc(C(=O)Nc2cccc3c2[C@@H]2CC[C@H]3C2=C(Cl)Cl)c(C(F)F)n1` (racemic) [Benzovindiflupyr, benzovindiflupyr], the “(B) inhibition” value is on record as 26% in the assay on Botrytis cinerea (setting [1]) and 57% with Botrytis cinerea (setting [2]).
Consider `CC[C@@H](C)[C@@H]1NC(=O)[C@@H]2CCCN2C(=O)[C@H](Cc2ccccc2)N(C)C(=O)[C@H](Cc2ccccc2)NC(=O)[C@H](C(C)C)N(C)C(=O)[C@@H]([C@H](C)CC)OC(=O)[C@H](C(C)(C)O)N(C)C(=O)[C@H](CC(C)C)NC(=O)[C@H](C(C)C)N(C)C1=O` [Aureobasidin A] (cyclo(F[NMeF]P[aIle][NMeV]L[NMeVal(β-OH)][X1][NMeV])), for which the “(A) inhibition” value is 0% in the assay with Botrytis cinerea (0.0002 ppm); 0% and 3% in the assay with Botrytis cinerea (0.0003 ppm); 0% in the assay with Botrytis cinerea (0.0006 ppm); 0% and 7% and 8% in the assay on Botrytis cinerea (0.0012 ppm); 23% and 25% and 24% in the assay with Botrytis cinerea (0.0100 ppm); 38% and 50% and 33% in the assay with Botrytis cinerea (0.0200 ppm). In addition, the “(A) inhibition” value with Botrytis cinerea (0.040 ppm) was 85%; with Alternaria solani (0.0001 ppm) it was 8% and 2% and 0%; with Alternaria solani (0.0002 ppm) it was 2% and 0%; in the assay on Alternaria solani (0.0003 ppm), 0% and 3%; in the assay with Alternaria solani (0.0006 ppm), 9% and 6% and 0%; in the assay on Alternaria solani (0.0012 ppm), 0%. The “(A) inhibition” value is 2% and 1% and 0% in the assay with Alternaria solani (0.0025 ppm); 12% in the assay on Alternaria solani (0.005 ppm); 0% in the assay with Alternaria solani (0.0100 ppm); 46% with Alternaria solani (0.040 ppm).
`CO/C=C(/C(=O)OC)c1ccccc1Oc1cc(Oc2ccccc2C#N)ncn1` [Azoxystrobin, azoxystrobin]: the “(B) inhibition” value is 31% in the assay on Botrytis cinerea (component (B) alone, 0.0313 ppm) and 61% in the assay with Botrytis cinerea (setting [3]).
Turning to `COc1ccnc(C(=O)N[C@@H](C)C(=O)O[C@@H](C)C(c2ccc(F)cc2)c2ccc(F)cc2)c1OC(C)=O` [Florylpicoxamid, florylpicoxamid], the “(B) inhibition” value in the assay with Botrytis cinerea (component (B) alone, 0.0625 ppm) worked out at 56%; in the assay on Botrytis cinerea (setting [3]), 59%.
In the assay on Botrytis cinerea (Botrytis cinerea, component (B) alone, 0.0006 ppm), `O=[N+]([O-])c1cc(C(F)(F)F)c(Cl)c([N+](=O)[O-])c1Nc1ncc(C(F)(F)F)cc1Cl` [Fluazinam, fluazinam] came in with an inhibition at 0.0006 ppm of 3%. In the assay with Botrytis cinerea (Botrytis cinerea, component (B) alone, 0.0012 ppm), this compound showed an inhibition at 0.0012 ppm of 6%. The inhibition at 0.0025 ppm was 8% in the assay on Botrytis cinerea (Botrytis cinerea, component (B) alone, 0.0025 ppm) and 11% with Alternaria solani (Alternaria solani, component (B) alone, 0.0025 ppm). The inhibition at 0.005 ppm in the assay with Botrytis cinerea (Botrytis cinerea, component (B) alone, 0.0050 ppm) is 6%; in the assay on Alternaria solani (Alternaria solani, component (B) alone, 0.0050 ppm) it was 11%. Moreover, at 0.01 ppm the inhibition in the assay with Botrytis cinerea (Botrytis cinerea, component (B) alone, 0.0100 ppm) was 8%. For the same compound, at 0.0003 ppm the inhibition in the assay on Alternaria solani (Alternaria solani, component (B) alone, 0.0003 ppm) was 11%.
In turn, `O=C(NCCc1ncc(C(F)(F)F)cc1Cl)c1ccccc1C(F)(F)F` [Fluopyram, fluopyram, reference compound] gave an inhibition at 0.125 ppm with Botrytis cinerea (Botrytis cinerea, component (B) alone, 0.1250 ppm) of 42%. In the assay with Alternaria solani (setting [4]), this compound came in with an inhibition at 0.0313 ppm of 49%. Besides, the inhibition at 0.0625 ppm in the assay with Alternaria solani (Alternaria solani, component (B) alone, 0.0625 ppm) was 63%.
Consider `CC(C)c1ccc(Cl)cc1CN(C(=O)c1c(C(F)F)nn(C)c1F)C1CC1` [Isoflucypram, isoflucypram, reference compound], for which the figures for the “(B) inhibition” value with Botrytis cinerea (setting [1]) and with Alternaria solani (setting [5]) were 37% and 22%, respectively.
Regarding `Cc1cccc(-n2nnn(C)c2=O)c1COc1ccn(-c2ccc(Cl)cc2)n1` [Metyltetrapole, metyltetrapole], the “(B) inhibition” value in the assay on Botrytis cinerea (setting [6]) is recorded as 43%; with Botrytis cinerea (setting [2]), 56%; in the assay on Alternaria solani (setting [6]), 73%.
As for `CON(C(=O)c1cn(C)nc1C(F)F)C(C)Cc1c(Cl)cc(Cl)cc1Cl` (stereo not shown) [Pydiflumetofen, pydiflumetofen, reference compound], the “(B) inhibition” value in the assay with Botrytis cinerea (setting [5]) amounted to 27%; in the assay with Alternaria solani (component (B) alone, 0.0008 ppm), 28%; with Alternaria solani (setting [1]), 71%.
`CON=C(C(=O)OC)c1ccccc1CON=C(C)c1cccc(C(F)(F)F)c1` [Trifloxystrobin, trifloxystrobin, reference compound] gave an inhibition at […] in the assay with Alternaria solani (Alternaria solani, component (B) alone, 0.0078 ppm) of 44%. The inhibition at 0.0313 ppm in the assay on Alternaria solani (setting [4]) amounted to 71%.

In general, inhibition refers to how much of the control response was suppressed.
